Results on 42 compounds are retold here after US10301278B2, “1-(triazin-3-yl/pyridazin-3-yl)-piper(-azine)idine derivatives and compositions therefor for inhibiting the activity of SHP2” (NOVARTIS AG, priority 2014, dated 2019).

The target in one test is SHP2 (Homo sapiens (Human), UniProt Q06124). The experiment in a line: SHP2 allosteric inhibition assay (DiFMUP prompt fluorescence). In kind it is biochemical.
Sequence of SHP2 (Q06124 whole entry): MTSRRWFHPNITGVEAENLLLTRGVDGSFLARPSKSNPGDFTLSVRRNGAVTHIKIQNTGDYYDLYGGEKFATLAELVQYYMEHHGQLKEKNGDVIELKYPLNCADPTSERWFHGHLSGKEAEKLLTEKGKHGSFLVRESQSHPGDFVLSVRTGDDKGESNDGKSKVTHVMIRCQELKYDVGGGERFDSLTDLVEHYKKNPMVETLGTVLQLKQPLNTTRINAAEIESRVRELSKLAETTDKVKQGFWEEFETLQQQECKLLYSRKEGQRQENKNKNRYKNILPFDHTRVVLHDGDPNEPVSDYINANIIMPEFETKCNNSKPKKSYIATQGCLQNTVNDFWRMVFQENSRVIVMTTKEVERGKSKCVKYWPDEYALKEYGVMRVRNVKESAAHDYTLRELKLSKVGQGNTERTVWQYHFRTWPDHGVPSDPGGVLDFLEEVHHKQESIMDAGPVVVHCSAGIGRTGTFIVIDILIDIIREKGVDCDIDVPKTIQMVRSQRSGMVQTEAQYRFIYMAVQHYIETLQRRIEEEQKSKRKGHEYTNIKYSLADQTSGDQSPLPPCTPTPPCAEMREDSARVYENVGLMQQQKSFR
Details: not given
As for the experimental part:
SHP2 is allosterically activated through binding of bis-tyrosyl-phorphorylated peptides to its Src Homology 2 (SH2) domains. The latter activation step leads to the release of the auto-inhibitory interface of SHP2, which in turn renders the SHP2 protein tyrosine phosphatase (PTP) active and available for substrate recognition and reaction catalysis. The catalytic activity of SHP2 was monitored using the surrogate substrate DiFMUP in a prompt fluorescence assay format.
After 30-60 minutes incubation at 25° C., the surrogate substrate DiFMUP (Invitrogen, cat#D6567) was added to the reaction and incubated at 25° C. for 30 minutes. […] The fluorescence signal was monitored using a microplate reader (Envision, Perki-Elmer) using excitation and emission wavelengths of 340 nm and 450 nm, respectively. The inhibitor dose response curves were analyzed using normalized IC50 regression curve fitting with control based normalization.
For the compound `CC1(N)CCN(c2cnc(Sc3cccc(Cl)c3Cl)c(N)n2)CC1` [Example 1, 6-(4-amino-4-methylpiperidin-1-yl)-3-((2,3-dichlorophenyl)thio)pyrazin-2-amine], the IC50 is 29 nM.

The test is the same for the next values; noted with them: 0.5 nM SHP2 activated with 0.5 μM peptide IRS1_pY1172(dPEG8)pY1222; substrate DiFMUP; 25° C.; read-out: IC50.
As for `NCC1(O)CCN(c2cnc(Sc3cccc(N)c3Cl)c(N)n2)CC1` [Example 47], the IC50 stood at 382 nM.

For the compound `CC1(N)CCN(c2cnc(Sc3ccc(F)cc3Cl)c(N)n2)CC1` [Example 23], the IC50 turned out to be 51 nM.

`COc1cccc(Sc2ncc(N3CCC(C)(N)CC3)nc2N)c1Cl` [Example 10, 6-(4-amino-4-methylpiperidin-1-yl)-3-((2-chloro-3-methoxyphenyl)thio)pyrazin-2-amine]: the IC50 worked out at 56 nM. Same read-out and setting: for `CC1(N)CCN(c2cnc(Oc3cccc(Cl)c3Cl)c(N)n2)CC1` [Example 8] the value was 64400 nM; for `C[C@@]1(N)CCN(c2cnc(Sc3cccc(Cl)c3Cl)c(N)n2)C[C@H]1O` [Example 24], 49 nM; for `NCC1(F)CCN(c2cnc(Sc3cccc(N)c3Cl)c(N)n2)CC1` [Example 44, 3-((3-amino-2-chlorophenyl)thio)-6-(4-(aminomethyl)-4-fluoropiperidin-1-yl)pyrazin-2-amine], 271 nM. On the same count and under the same terms, for `CC1(CN)CCN(c2cnc(Sc3ccnc(Cl)c3Cl)c(N)n2)CC1` [Example 49] the value was 100 nM. On the same count and under the same terms, for `CC1(N)CCN(c2cnc(Sc3ccc(-c4nn[nH]n4)cc3Cl)c(N)n2)CC1` [Example 38, 6-(4-amino-4-methylpiperidin-1-yl)-3-((2-chloro-4-(2H-tetrazol-5-yl)phenyl)thio)pyrazin-2-amine] the value was 23 nM; for `CC1(N)CCN(c2cnc(Sc3ccccc3C(F)(F)F)c(N)n2)CC1` [Example 4, 6-(4-amino-4-methylpiperidin-1-yl)-3-((2-(trifluoromethyl)phenyl)thio)pyrazin-2-amine], 59 nM. Consider `NCC1(c2cscn2)CCN(c2cnc(Sc3cccnc3C(F)(F)F)c(N)n2)CC1` [Example 40, 6-(4-(aminomethyl)-4-(thiazol-4-yl)piperidin-1-yl)-3-((2-(trifluoromethyl)pyridin-3-yl)thio)pyrazin-2-amine], for which the IC50 stood at 79 nM. On the same count and under the same terms, for `CC1(CN)CCN(c2cnc(Sc3cccnc3Cl)c(N)n2)CC1` [Example 39, 6-(4-(aminomethyl)-4-methylpiperidin-1-yl)-3-((2-chloropyridin-3-yl)thio)pyrazin-2-amine] the value was 26 nM; for `CC1(CN)CCN(c2cnc(Sc3cc(N)nc(Cl)c3Cl)c(N)n2)CC1` [Example 55], 17.7 nM; for `NCC1(c2cccnc2)CCN(c2cnc(Sc3cccc(Cl)c3Cl)c(N)n2)CC1` [Example 28, 6-(4-(aminomethyl)-4-(pyridin-3-yl)piperidin-1-yl)-3-((2,3-dichlorophenyl)thio)pyrazin-2-amine], 54 nM.

As to `COc1ccc(Cl)c(Sc2ncc(N3CCC(C)(N)CC3)nc2N)c1` [Example 7], the IC50 was 13700 nM.

For the compound `Nc1nc(N2CCC(N)(CO)CC2)cnc1Sc1ccnc(N)c1Cl` [Example 53], the IC50 turned out to be 315 nM.

Take `CC1(CN)CCN(c2cnc(Sc3cccc(N)c3Cl)c(N)n2)CC1` [Example 20]: the IC50 worked out at 22 nM.

Consider `Nc1nc(N2CCC(N)(CO)CC2)cnc1Sc1cccnc1C(F)(F)F` [Example 54], for which the IC50 came out at 170 nM. The same measure, in the same setting: for `CC1(CN)CCN(c2cnc(Sc3ccnc(Cl)c3Cl)c(N)n2)CC1` [Example 43, 6-(4-(aminomethyl)-4-methylpiperidin-1-yl)-3-((2,3-dichloropyridin-4-yl)thio)pyrazin-2-amine] the value was 14 nM; for `CC1(N)CCN(c2cnc(Sc3ccncc3Cl)c(N)n2)CC1` [Example 36, 6-(4-amino-4-methylpiperidin-1-yl)-3-((3-chloropyridin-4-yl)thio)pyrazin-2-amine], 76 nM; for `CC1(N)CCN(c2cnc(Sc3ccccc3Cl)c(N)n2)CC1` [Example 2], 70 nM. The same measure, in the same setting: for `CC1(N)CCN(c2nnc(Sc3ccccc3Cl)c(N)n2)CC1` [Example 15] the value was 266 nM; for `CC1(CN)CCN(c2cnc(Sc3ccnc(N)c3Cl)c(N)n2)CC1` [Example 42, 3-((2-amino-3-chloropyridin-4-yl)thio)-6-(4-(aminomethyl)-4-methylpiperidin-1-yl)pyrazin-2-amine], 23 nM. For the compound `Nc1nc(N2CCC(N)(CO)CC2)cnc1Sc1ccnc(Cl)c1Cl` [Example 52, (4-amino-1-(6-amino-5-((2,3-dichloropyridin-4-yl)thio)pyrazin-2-yl)piperidin-4-yl)methanol], the IC50 stood at 62 nM. Still for that read-out and setting: for `CC1(N)CCN(c2cnc(Sc3cccc(N)c3C(F)(F)F)c(N)n2)CC1` [Example 21] the value was 46 nM; for `CC1(N)CCN(c2cnc(Sc3cc(O)ccc3Cl)c(N)n2)CC1` [Example 9, 3-((3-amino-5-(4-amino-4-methylpiperidin-1-yl)pyrazin-2-yl)thio)-4-chlorophenol], 307 nM.

Regarding `CC1(CN)CCN(c2nc(N)c(Sc3cccc(Cl)c3Cl)nc2C(N)=O)CC1` [Example 33, 5-amino-3-(4-(aminomethyl)-4-methylpiperidin-1-yl)-6-((2,3-dichlorophenyl)thio)pyrazine-2-carboxamide], the IC50 came to 19 nM. Still for that read-out and setting: under `NCC1CCCN(c2cnc(Sc3cccnc3C(F)(F)F)c(N)n2)C1` (stereo not drawn) [Example 46] stands 459 nM; under `CC1(CN)CCN(c2nc(N)c(Sc3cccnc3C(F)(F)F)nc2C(N)=O)CC1` [Example 35], 109 nM; under `CC1(CN)CCN(c2cnc(Sc3cccnc3C(F)(F)F)c(N)c2)CC1` [Example 45], 351 nM. Consider `CC1(N)CCN(c2cnc(Sc3cc(Cl)ccc3Cl)c(N)n2)CC1` [Example 5], for which the IC50 stood at 1080 nM. The same measure, in the same setting: under `CCC1(CN)CCN(c2cnc(Sc3ccnc(N)c3Cl)c(N)n2)CC1` [Example 50] stands 59 nM; under `CC1(N)CCN(c2cnc(Sc3ccnc(C(F)(F)F)c3Cl)c(N)n2)CC1` [Example 37], 82 nM; under `Nc1cccc(Sc2ncc(N3CCC(N)(CO)CC3)nc2N)c1Cl` [Example 32], 195 nM. In the case of `CC1(N)CCN(c2cnc(Sc3cccc(NC(=O)c4ccc5ccccc5c4)c3Cl)c(N)n2)CC1` [Example 13], the IC50 amounted to 257 nM. For `CC1(N)CCN(c2cnc(Sc3ccc(Cl)cc3Cl)c(N)n2)CC1` [Example 6], the IC50 is 210 nM. Still for that read-out and setting: for `CCCC1(CN)CCN(c2cnc(Sc3ccnc(N)c3Cl)c(N)n2)CC1` [Example 51] the value was 17 nM; for `CC1(CN)CCN(c2cnc(Sc3ccncc3F)c(N)n2)CC1` [Example 48], 177 nM; for `CC1(N)CCN(c2cnc(Sc3ccc(Br)cc3Cl)c(N)n2)CC1` [Example 22], 44 nM. Still for that read-out and setting: for `CC1(N)CCN(c2nnc(Sc3cccc(Cl)c3Cl)c(N)n2)CC1` [Example 14, 3-(4-amino-4-methylpiperidin-1-yl)-6-((2,3-dichlorophenyl)thio)-1,2,4-triazin-5-amine] the value was 143 nM; for `CC1(N)CCN(c2cnc(Sc3ccc(F)cc3C(F)(F)F)c(N)n2)CC1` [Example 26], 67 nM.

Consider `CC1(N)CCN(c2cnc(Sc3cccnc3C(F)(F)F)c(N)n2)CC1` [Example 30], for which the IC50 was found to be 66 nM.

As usually defined, the IC50 is the concentration that gives 50% inhibition.
